For series [1], the target named is T1, elastase-1 (Sus scrofa, UniProt P00772).
T1 construct: purchased Sigma-Aldrich
Nature of the series: Kinetic characterization of elastase-1 inhibition (Michaelis-Menten, Dixon plot). As to conditions: for Elastase inhibition: data not shown. Type of series: biochemical. The method, then:
To determine the inhibition constant (Ki ) of the peptide, firstly the Michaelis-Menten constant (Km ) for the Abz-FRSSRQ-EDDnp hydrolysis by elastase-1 was obtained. For this, the concentrations of 2.5 µM, 5.0 µM, 10.0 µM, 15.0 µM, 25.0 µM and 50.0 µM of the substrate were used, in Tris 50 mM, NaCl 50 mM pH 8.0. Initial rates were determined at an enzyme concentration (100 ng) that would hydrolyze less than 10% of the substrate. The kinetic parameters (Km and Vmax ) were calculated by Michaelis-Menten equation using the Grafit 5 software (Erithacus Software, West Sussex, UK), as previously described. All experiments were performed in duplicate.
The Kunitz-type peptide quantification was determined by the BCA method using insulin as standard (5 µg/µL, 10 µg/µL, 25 µg/µL, 50 µg/µL e 100 µg/µL). To determine the mechanism of action of the Kunitz-type inhibitor, two concentrations of Abz-FRSSRQ-EDDnp, 6.8 µM and 3.4 µM, and two concentrations of the purified peptide, 0.63 µM and 0.94 µM, were utilized. For each substrate concentration it was made a control test (absence of the peptide). The assays were performed in duplicate and during all experiment the consumption of substrate was maintained under 10%. The reactions were monitored in the fluorimeter, as described above, and were analyzed in the Grafit 5 software (Erithacus Software, West Sussex, UK). The mechanism and the inhibition constants were determined through the Dixon plot (1/V x [I]) equation [20]. The plot was made in the software GraphPad Prism 5.

Series [2] has as its target T1, elastase-1. Nature of the series: Stability test of peptides against hydrolysis by elastase-1 (RP-HPLC). Format: in vitro ADME. As to conditions: data not shown; for Stability against hydrolysis by elastase-1: peptide 50 mM (so in the source), elastase-1 300 ng, Tris 50 mM, NaCl 50 mM pH 8.0, 37 °C, 4 hours and overnight, C18 RP-HPLC, UV 214 nm, duplicate. The method, then: Samples containing only the synthetic peptides were used as negative control. After incubation, samples were analyzed, in duplicate by reverse phase chromatography on HPLC, using a Shim-pack C-18 column in the same conditions described above.

Series [3] deals with T2, recombinant human cathepsin L (Homo sapiens, UniProt P07711).
T2 construct: purchased R&D systems
Briefly: Stability test of peptides against hydrolysis by cathepsin L (RP-HPLC). Type of series: in vitro ADME. As to conditions: cathepsin L 10 ng, NaCl 200 mM, EDTA 5 mM, DTT 6.25 mM pH 5.5; 37 °C; 4 hours and overnight (16 hours); C18 RP-HPLC, UV 214 nm; duplicate; data not shown. The method, then: The synthetic peptides PEP1 and PEP2 (50 mM) were incubated with elastase-1 (300 ng), in Tris 50 mM, NaCl 50 mM pH 8.0 buffer, and cathepsin L (10 ng), in 50 mM, NaCl 200 mM, EDTA 5 mM, DTT 6.25 mM pH 5.5 buffer, at 37 °C in two different time intervals, 4 hours and overnight. Samples containing only the synthetic peptides were used as negative control. After incubation, samples were analyzed, in duplicate by reverse phase chromatography on HPLC, using a Shim-pack C-18 column in the same conditions described above.
Target sequence in this assay (P07711 114-333): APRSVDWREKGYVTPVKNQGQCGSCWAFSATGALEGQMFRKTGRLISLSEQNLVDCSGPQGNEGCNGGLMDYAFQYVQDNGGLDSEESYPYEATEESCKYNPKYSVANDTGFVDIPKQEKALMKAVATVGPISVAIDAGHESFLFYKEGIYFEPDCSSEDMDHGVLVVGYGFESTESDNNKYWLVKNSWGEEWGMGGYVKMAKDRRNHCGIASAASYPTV

For series [4], the target named is T2, recombinant human cathepsin L. Briefly: Kinetic characterization of cathepsin L inhibition (Michaelis-Menten, Dixon plot). Type of series: biochemical. The method, then:
To obtain the Michaelis-Menten constant (Km ) of the Z-FR-MCA hydrolysis by cathepsin L (1 ng), 1 µM, 2.5 µM, 5.0 µM, 7.5 µM, 12.5 µM, 15 µM, 20 µM concentrations of Z-FR-MCA substrate were tested in 50 mM, NaCl 200 mM, EDTA 5 mM, DTT 6.25 mM pH 5.5 buffer (final volume of 100 µL).The reactions were continuously monitored (fluorescence at λEM 480 nm and λEX 360 nm) in a fluorimeter (425-301 Hidex, Finland), as described. The maximum speed (Vmax ) and the Km were obtained in the Grafit 5 software. All experiments were performed in duplicate. To determine the mechanism of inhibition and the inhibition constant (Ki ) of inhibitor PEP2, two concentrations of the Z-FR-MCA, 5.2 µM (2 Km ) and 7.8 (3 Km ), and three concentrations of the inhibitor PEP2, 1 µM, 2.5 µM and 5 µM, were used. Samples without PEP2 for each substrate concentration were utilized. The experiments were carried out in duplicates and the consumption of the substrate was maintained under 10%. The results were analyzed in the Grafit 5 software. The mechanism and the inhibition constants were determined through the Dixon plot (1/V x [I]) equation [20], using the software GraphPad Prism 5.

The test system of the next series is trypsin. Briefly: Trypsin inhibition. As to conditions: data not shown. Format: biochemical.
For the next series, the system named is chymotrypsin. Briefly: Chymotrypsin inhibition. As to conditions: data not shown. Type of series: biochemical.
Another series deals with potassium channel. As to conditions: read-out: Potassium channel blocker activity IC50; cited from earlier work.
The target of series [5] is T3, pancreatic elastase (EC 3.4.21.36) (UniProt P00772 27-266).
T3 construct: also called elastase-1; source: bought: Sigma-Aldrich
Nature of the series: enzyme inhibition kinetics (fluorimetric, Dixon plot); elastase-1 (100 ng) with the FRET substrate Abz-FRSSRQ-EDDnp at 3.4 and 6.8 µM, purified peptide at 0.63 and 0.94 µM; Tris 50 mM, NaCl 50 mM, pH 8.0, 37 °C; duplicates; mechanism found uncompetitive. As to conditions: both partners purified.

Like-named read-outs stand apart in the source and are kept apart here. Bridge positions count the residues as written; N and C are the ends. Square brackets hold non-standard residues; d marks the D form. Peptide text beside a SMILES is read from it. * marks the point of attachment. EDDnp = O=[N+]([O-])c1ccc(NCCN*)c([N+](=O)[O-])c1; AMC = Cc1cc(=O)oc2cc(N*)ccc12; 2Abz = Nc1ccccc1C(=O)O; Cbz = O=C(OCc1ccccc1)*

T1 sequence (P00772 27-266): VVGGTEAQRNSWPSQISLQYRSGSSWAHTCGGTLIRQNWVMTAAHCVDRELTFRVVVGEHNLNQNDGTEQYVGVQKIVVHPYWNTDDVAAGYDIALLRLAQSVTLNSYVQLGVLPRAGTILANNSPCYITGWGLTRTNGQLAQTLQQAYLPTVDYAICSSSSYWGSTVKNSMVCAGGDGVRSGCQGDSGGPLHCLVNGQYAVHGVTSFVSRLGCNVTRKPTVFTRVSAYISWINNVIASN
T3 sequence (P00772 27-266): as above

`N=C(N)NCCC[C@H](NC(=O)[C@H](Cc1ccccc1)NC(=O)c1ccccc1N)C(=O)N[C@@H](CO)C(=O)N[C@@H](CO)C(=O)N[C@@H](CCCNC(=N)N)C(=O)N[C@@H](CCC(N)=O)C(=O)NCCNc1ccc([N+](=O)[O-])cc1[N+](=O)[O-]` [Abz-FRSSRQ-EDDnp, reference compound] (H-[2Abz]FRSSRQ-EDDnp): the Km turned out to be 10.6 µM at elastase-1 [1] (Michaelis-Menten fit, Std. Error 2.2721 in its own column, read-out: Km, fit parameter value (Additional file 4A), elastase-1) and 10.7 µM at elastase-1 [1] (substrate 2.5-50.0 µM, elastase-1 100 ng, Tris 50 mM, NaCl 50 mM pH 8.0, Grafit 5, duplicate, read-out: Michaelis-Menten constant (Km) of substrate cleavage by elastase-1).
Turning to `C[C@@H](O)[C@H](NC(=O)[C@H](Cc1ccccc1)NC(=O)CNC(=O)[C@H](CCC(=O)O)NC(=O)[C@H](CS)NC(=O)[C@H](CCC(N)=O)NC(=O)[C@H](CCCCN)NC(=O)[C@@H](N)CCCCN)C(=O)N[C@@H](Cc1c[nH]c2ccccc12)C(=O)N[C@@H](CO)C(=O)NCC(=O)N[C@@H](CS)C(=O)NCC(=O)NCC(=O)N[C@@H](CC(N)=O)C(=O)N[C@@H](CO)C(=O)O` [PEP1] (H-KKQCEGFTWSGCGGNS-OH), at elastase-1 [2], the “Stability against hydrolysis by elastase-1” value is on record as “not stable”. Besides, the “Stability against hydrolysis by cathepsin L” value in series [3] is given as “hydrolyzed”.
As to `CC[C@H](C)[C@@H]1NC(=O)[C@H](CCCCN)NC(=O)[C@H](CCC(N)=O)NC(=O)[C@H](Cc2ccc(O)cc2)NC(=O)[C@@H](NC(=O)[C@H](CCCNC(=N)N)NC(=O)CNC(=O)[C@@H]2CCCN2)CSSC[C@@H](C(=O)NCC(=O)NCC(=O)O)NC(=O)CNC(=O)[C@H](CO)NC(=O)[C@H](Cc2c[nH]c3ccccc23)NC(=O)[C@H]([C@@H](C)O)NC(=O)[C@H](Cc2ccccc2)NC(=O)CNC(=O)[C@H](CCC(=O)O)NC(=O)[C@H](C(C)C)NC(=O)[C@H](CCC(N)=O)NC(=O)[C@H](CCCCN)NC(=O)[C@H](CCCCN)NC(=O)[C@H](CCCCN)NC(=O)[C@H](CCC(N)=O)NC(=O)[C@H](CC(N)=O)NC(=O)[C@H](Cc2ccc(O)cc2)NC(=O)[C@H](Cc2ccc(O)cc2)NC(=O)[C@H](Cc2ccccc2)NC(=O)[C@H](C)NC(=O)[C@@H]2CCCN2C1=O` [PEP2] (H-PGRCYQKIPAFYYNQKKKQVEGFTWSGCGG-OH; disulfide 4-28), the Ki in series [4] (Dixon plot, Z-FR-MCA 5.2 and 7.8 µM (2 and 3 Km), PEP2 0, 1.0, 2.5 and 5.0 µM, cathepsin L 1 ng, pH 5.5 buffer with DTT 6.25 mM, duplicate, read-out: Inhibition constant (Ki) for cathepsin L) was found to be 1.96 µM. The “Stability against hydrolysis by elastase-1” value on elastase-1 [2] was “not stable”. For the same molecule, the “Stability against hydrolysis by cathepsin L” value in series [3] was “not degraded”.
Regarding Cbz-Phe-Arg-{AMC}, the Km was determined as 2.65 µM in series [4] (Michaelis-Menten fit, Std. Error 0.4867 in its own column, read-out: Km, fit parameter value (Additional file 4B), cathepsin L) and 2.65 µM in series [4] (substrate 1-20 µM, cathepsin L 1 ng, pH 5.5 buffer, Grafit 5, duplicate, read-out: Michaelis-Menten constant (Km) of substrate hydrolysis by cathepsin L).
For “Kunitz-type serine protease inhibitor homolog dendrotoxin I (QPLRKLCILHRNPGRCYQKIPAFYYNQKKKQCEGFTWSGCGGNSNRFKTIEECRRTCIRK) [Kunitz-type peptide]”, the “Mechanism of inhibition of elastase-1” value with elastase-1 [1] (Dixon plot (1/V versus [I]), parallel lines) is “uncompetitive inhibitor”. For the same molecule, the Elastase inhibition result with elastase-1 [1] (peptide 1.26 µM) and in the series with elastase-1 [1] (peptide 3.52 µM) was “above 70%” each time. Also, in the series with elastase-1 [2] (overnight incubation with elastase-1), the “Stability on incubation with elastase-1 (substrate or not)” value is listed as “not an elastase-1 substrate”. Further, the Inhibition of trypsin result with trypsin is reported as “no other serine protease inhibitions”. Moreover, in the series on chymotrypsin, the Inhibition of chymotrypsin entry is on record as “no other serine protease inhibitions”. In addition, the IC50 in the series with potassium channel is 0.00013 to 0.05 µM.

B1: Kunitz-type serine protease inhibitor homolog dendrotoxin I (peptide)
chain: QPLRKLCILHRNPGRCYQKIPAFYYNQKKKQCEGFTWSGCGGNSNRFKTIEECRRTCIRK
notes: also called Kunitz-type peptide; Kunitz peptide
For B1, the inhibition constant (Ki) in series [5] stood at 8 µM.

One may read the Km as the concentration of substrate that gives half-maximal velocity. By Ki is commonly meant a measure of affinity in units of concentration, obtained from inhibition or displacement. Broadly, the IC50 is the concentration that inhibits the measured activity by half.

Source of the values: PMC7546081, “A Kunitz-type peptide from Dendroaspis polylepis venom as a simultaneous inhibitor of serine and cysteine proteases” (The Journal of Venomous Animals and Toxins Including …, 2020).
